Where “and” joins values, the source holds several entries; their conditions need not be identical. Equal entries are not always repeated. Where two headings read alike, the source gives them in different places.
What was measured:
[1] = test system: HSV-1/L2; experiment: CPE inhibition assay, HSV-1 reference strain L2 in Vero E6 cells; format: cell-based, herpes simplex virus 1; conditions: for IC95: Human alphaherpesvirus 1, Vero C1008, CPE inhibited almost completely
Description: (§1) Vero 6 cells for determining cytotoxicity and antiviral activity were cultured according to the method described in [29].
Vero E6 cells were then infected with the infection material at an MOI of 0.01 PFU/cell; incubation was performed at 37 °C in an atmosphere of 5% CO2. […] The duration of incubation was 48 h and 72 h for MOI 0.01 PFU/mL, respectively. […] The results of three independent experiments are shown in Table S1 (Supplementary Materials).

[2] = test system: HSV-1/L2/R^ACV; experiment: microbe, parasite or virus in culture; format: cell-based, herpes simplex virus 1; conditions: for IC95: Human alphaherpesvirus 1, Vero C1008, read-out: IC95 HSV-1/L2/R^ACV, CPE inhibited almost completely, Vero E6, MOI 0.01, acyclovir-resistant strain
Description: as §1
In 96-well plastic plates with the generated cell monolayer, serial dilutions of the compounds were prepared at […] 1:2 with the maintenance medium (Eagle′s medium and medium 199, mixed in a ratio 1:1). Vero E6 cells were then infected with the infection material at an MOI of 0.01 PFU/cell; incubation was performed at 37 °C in an atmosphere of 5% CO2. Cytotoxicity was determined quantitatively by the trypan blue exclusion method and expressed as CD50: the concentration of the drug at which 50% of cells die after 72 h. […] The duration of incubation was 48 h and 72 h for MOI […], respectively. […] An antiviral activity was assessed by determining ID50 and ID95 (concentrations of compounds that inhibit the development of virus-induced CPE as compared with the control by 50% and almost completely). […] The results of three independent experiments are shown in Table S1 (Supplementary Materials).

[3] = test system: Vero E6 cells; experiment: Cytotoxicity, trypan blue exclusion; format: cell-based; conditions: for CD50: 50% cytotoxic concentration, Vero E6 cells, 72 h; for MTC (maximal tolerable concentration): highest concentration that does not cause death of Vero E6 cells
[4] = test system: HCMV; conditions: cited from earlier work
[5] = test system: HSV-1; conditions: cited from earlier work
[6] = Human alphaherpesvirus 1, Vero C1008, read-out: IC50 HSV-1/L2, CPE inhibition by 50%, Vero E6, MOI 0.01
[7] = read-out: IC50 HSV-1/L2, CPE inhibition by 50%, Vero E6, MOI 0.01
[8] = Human alphaherpesvirus 1, Vero C1008, read-out: IC50 HSV-1/L2/R^ACV, CPE inhibition by 50%, Vero E6, MOI 0.01, acyclovir-resistant TK-negative strain

Row | Compound | IC95 ([1]; Vero E6, MOI 0.01) | IC50 [1, 6] | IC50 [1, 7] | IC50 [2, 8] | CD50 [3] | MTC (maximal tolerable concentration) [3] | IC95 [2] | IC50 [4] | IC50 [5] | IC50 ([2]; Human alphaherpesvirus 1, Vero C1008, virus variant profoundly resistant to acyclovir)
1 | c1ccc2[nH]cnc2c1 [Compound 1, Benzimidazole] | 4240 µM | 1060 µM | 1060 µM | 1060 µM | 6313.85 ± 167.47 µM | 4235.49 µM | – | – | – | –
2 | Fc1cc2nc[nH]c2cc1F [Compound 2, 5,6-Difluorobenzimidazole] | 1620 µM | 203 µM | 203 µM | 406 µM | 2433.81 ± 37.72 µM | 1623.06 µM | – | – | – | –
3 | Fc1cc(F)c2[nH]cnc2c1 [Compound 3, 4,6-Difluorobenzimidazole] | 1620 µM | 812 µM | 812 µM | 812 µM | 2489.32 ± 92.46 µM | 811.53 µM | – | – | – | –
4 | Fc1cc2nc[nH]c2c(F)c1F [Compound 4, 4,5,6-Trifluorobenzimidazole] | 1450 µM | 363 µM | 363 µM | 363 µM | 2179.98 ± 27.03 µM | 1453.32 µM | – | – | – | –
5 | COc1c(F)cc2nc[nH]c2c1F [Compound 5, 4,6-Difluoro-5-methoxybenzimidazole] | 2720 µM | 1020 µM | – | 1360 µM | 2909.48 ± 123.18 µM | 1358.40 µM | – | – | – | –
6 | Nc1nc2ccccc2[nH]1 [Compound 6, 2-aminobenzimidazole] | 939 µM | 470 µM | 470 µM | 705 µM | 1422.89 ± 18.04 µM | 939.43 µM | – | – | – | –
7 | COc1cc2nc(N)[nH]c2cc1F [Compound 7, 2-amino-5-fluoro-6-methoxybenzimidazole] | 690 µM | 173 µM | 173 µM | 173 µM | 2165.79 ± 33.74 µM | 1380.68 µM | – | – | – | –
8 | Nc1nc2cc(F)c(F)cc2[nH]1 [Compound 8, 2-Amino-5,6-difluorobenzimidazole] | 739 µM | 370 µM | 370 µM | 370 µM | 1659.39 ± 60.16 µM | 739.43 µM | – | – | – | –
9 | OC[C@@H]1C[C@@H](O)[C@H](n2cnc3ccccc32)O1 [Compound 9, 1-(β-D-3′-Deoxyribofuranosyl)benzimidazole] | 2510 µM | 626 µM | 626 µM | 1250 µM | > 5019.25 µM | 2505.13 µM | 5020 µM | – | – | –
10 | OC[C@@H]1C[C@@H](O)[C@H](n2cnc3cc(F)c(F)cc32)O1 [Compound 10, 5,6-Difluoro-1-(β-D-3′-deoxyribofuranosyl)benzimidazole] | 985 µM | 246 µM | 246 µM | 1480 µM | 2901.81 ± 60.28 µM | 1970.86 µM | ≥ 1970 µM | – | – | –
11 | OC[C@@H]1C[C@@H](O)[C@H](n2cnc3c(F)cc(F)cc32)O1 [Compound 11a, 4,6-difluoro-1-(β-D-3′-deoxyribofuranosyl)benzimidazole] | 1000 µM | 251 µM | 251 µM | < 2010 µM | > 2007.37 µM | 1003.68 µM | 2010 µM | – | – | –
12 | OC[C@@H]1C[C@@H](O)[C@H](n2cnc3c(F)c(F)c(F)cc32)O1 [Compound 12a, 4,5,6-trifluoro-1-(β-D-3′-deoxyribofuranosyl)benzimidazole] | 1000 µM | 250 µM | 250 µM | 494 µM | ≥ 3999.31 µM | 1999.65 µM | 2000 µM | – | – | –
13 | COc1c(F)cc2c(ncn2[C@@H]2O[C@H](CO)C[C@H]2O)c1F [Compound 13, 4,6-Difluoro-5-metoxy-1-(β-D-3′-deoxyribofuranosyl)benzimidazole] | 3330 µM | 3000 µM | – | 3000 µM | – | 1665.22 µM | – | – | – | –
14 | Nc1nc2cc(F)c(F)cc2n1[C@@H]1O[C@H](CO)C[C@H]1O [Compound 16, 2-Amino-5,6-difluoro-1-(β-D-3′-deoxyribofuranosyl)benzimidazole] | > 1990 µM | 996 µM | 996 µM | 996 µM | 3315.58 ± 141.99 µM | 1991.35 µM | > 1990 µM | – | – | –
15 | OC[C@H]1O[C@@H](n2cnc3cc(Cl)c(Cl)cc32)[C@H](O)[C@@H]1O [DRB, 5,6-dichloro-1-(β-D-ribofuranosyl)benzimidazole] | – | – | – | – | – | – | – | 42 µM | 30 µM | –
16 | Nc1nc2c(ncn2COCCO)c(=O)[nH]1 [acyclovir, reference compound] | – | – | – | – | – | – | – | – | – | > 100 µg/mL and > 444 µM
17 | NC(=O)c1ncn([C@@H]2O[C@H](CO)[C@@H](O)[C@H]2O)n1 [ribavirin, reference compound] | 2050 µM | – | – | 512 µM | – | 4095.00 µM | – | – | – | –
